# Values joined by “and” are separate entries in the source; they are usually repeats but may differ in a detail not shown here. Equal entries are not always repeated.
# What was measured:
# rat native NET [1] = molecular target: rat native NET (Rattus norvegicus, UniProt Q63380); test: [3H]-NE uptake inhibition in rat cortical synaptosomes; type: biochemical; conditions: Rat; mean (95% CI), 3 to 9 experiments
# Description: (§1) The in vitro pharmacology of TD-9855 (4-[2-(2, 4, 6-trifluorophenoxymethyl)phenyl]piperidine; Figure 1) at human recombinant and rat native monoamine transporters was characterized as described previously ([Tsuruda et al., 2010]; [Shen et al., 2013]). Radioligands were sourced commercially (Perkin Elmer Life Sciences or GE Healthcare Life Sciences). Briefly, membranes prepared from HEK293 (Human Embryonic Kidney 293) cells stably-transfected with human recombinant SERT (HEK293-hSERT), NET (HEK293-hNET), or DAT ([…]) were incubated for 1hr at 22°C in the absence, or presence, of TD-9855 and [^3H]-citalopram (1.0nM) for SERT, [^3H]-nisoxetine (2.0nM) for NET, and [^3H]-WIN35428 (3.0nM) for DAT in 50mM Tris-HCl, 120mM NaCl, 5mM KCl, 0.025% BSA, 100 μM ascorbic acid, pH 7.4. Rat cortical membrane preparations were incubated with [^3H]-citalopram (2.0nM) for SERT or [^3H]-nisoxetine (4.0nM) for NET for 1hr at 22°C. […] Binding and uptake assays were terminated by rapid filtration and radioactivity, determined by liquid scintillation spectroscopy.
# rat native NET [2] = test: as above; type: biochemical; conditions: rat cortical synaptosomes, uptake
# Description: as §1
# human recombinant DAT = molecular target: T1, human recombinant DAT (Homo sapiens, UniProt Q01959); test: [3H]-WIN35428 equilibrium binding, CHO-K1-hDAT membranes; conditions: mean (95% CI), 3 to 9 experiments, read-out: Transporter Binding: pKi DAT (converted)
# T1 construct: expressed in transfected cells; 'hDAT cells' for uptake
# Description: as §1
# SERT = SERT (Homo sapiens, UniProt P31645); test: Human PET SERT occupancy with [11C]-DASB; type: in vivo; design: from tissue; host or cells: brain of healthy male volunteers, in vivo PET
# Protocol: This was a Phase 1, open-label, single-dose study in healthy male volunteers to evaluate NET and SERT occupancy in the human brain after oral administration of TD-9855 using PET.
# The study was conducted at the Yale PET Center in accordance with the principles of the International Conference on Harmonisation’s Technical Requirements for Registration of Pharmaceuticals for Human Use Guideline for Good Clinical Practice. The protocol was approved by the Yale University Human Investigation Committee and the Yale–New Haven Hospital Radiation Safety Committee. SERT and NET occupancy were determined using the selective radiotracers [^11C]-DASB ([Meyer et al., 2004]; [Takano et al., 2006]; [Abanades et al., 2011]; [Nogami et al., 2013]) and [^11C]-MRB. Selection of the radiotracers and the dose of TD-9855 were flexible to minimize the number of PET scans.
# Eligible subjects were enrolled and received either [^11C]-MRB and/or [^11C]-DASB. Each subject underwent up to 5 PET scans over a period of up to 8 days. Multiple dose levels of TD-9855 (up to 20mg) were explored. All randomized subjects received the NET tracer (single-tracer evaluation) and some subjects (n = 3) received both the NET and SERT tracers sequentially (dual-tracer evaluation) in the baseline and post-dose period. […] In the dual-tracer evaluation, subjects completed sequential [^11C]-DASB and [^11C]-MRB baseline scans with each tracer, sequential post-dose scans with each tracer at 7–10hr post-dose, and one follow-up scan with [^11C]-MRB on or between Days 3 and 7. […]
# For both studies, binding potentials (BP ND) were estimated using a method based on a reference region input curve. […] The suitability of MRTM2 to estimate [^11C]-MRB BP ND values was evaluated in a previous study ([Hannestad et al., 2010]), in which it was shown that MRTM2 BP ND estimates are highly correlated with BP ND estimated with arterial blood sampling and the multilinear analysis 1 (y = 0.909 x + 0.078, r^2 = 0.821, where x represents the MA1 BP ND values and y represents the MRTM2 BP ND values). […]
# SERT, sequence (P31645 whole entry): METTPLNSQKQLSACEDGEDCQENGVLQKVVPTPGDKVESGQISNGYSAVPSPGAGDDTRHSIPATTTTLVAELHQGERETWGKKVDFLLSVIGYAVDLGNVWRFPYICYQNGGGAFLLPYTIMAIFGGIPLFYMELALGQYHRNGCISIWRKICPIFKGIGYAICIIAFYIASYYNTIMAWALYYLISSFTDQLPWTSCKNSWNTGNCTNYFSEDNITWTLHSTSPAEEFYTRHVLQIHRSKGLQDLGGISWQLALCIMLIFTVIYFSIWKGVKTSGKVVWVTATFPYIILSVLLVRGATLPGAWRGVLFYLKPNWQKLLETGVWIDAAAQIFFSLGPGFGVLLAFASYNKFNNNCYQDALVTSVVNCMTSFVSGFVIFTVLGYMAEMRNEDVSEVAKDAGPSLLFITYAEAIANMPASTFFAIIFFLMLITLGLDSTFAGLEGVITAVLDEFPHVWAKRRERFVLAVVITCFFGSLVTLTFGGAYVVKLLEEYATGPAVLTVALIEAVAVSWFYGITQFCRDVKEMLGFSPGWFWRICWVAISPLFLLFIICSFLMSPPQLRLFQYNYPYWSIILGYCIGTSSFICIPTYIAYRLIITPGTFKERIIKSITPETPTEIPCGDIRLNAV
# rat native NET (Rattus norvegicus, UniProt Q63380), sequence (Q63380 1-617): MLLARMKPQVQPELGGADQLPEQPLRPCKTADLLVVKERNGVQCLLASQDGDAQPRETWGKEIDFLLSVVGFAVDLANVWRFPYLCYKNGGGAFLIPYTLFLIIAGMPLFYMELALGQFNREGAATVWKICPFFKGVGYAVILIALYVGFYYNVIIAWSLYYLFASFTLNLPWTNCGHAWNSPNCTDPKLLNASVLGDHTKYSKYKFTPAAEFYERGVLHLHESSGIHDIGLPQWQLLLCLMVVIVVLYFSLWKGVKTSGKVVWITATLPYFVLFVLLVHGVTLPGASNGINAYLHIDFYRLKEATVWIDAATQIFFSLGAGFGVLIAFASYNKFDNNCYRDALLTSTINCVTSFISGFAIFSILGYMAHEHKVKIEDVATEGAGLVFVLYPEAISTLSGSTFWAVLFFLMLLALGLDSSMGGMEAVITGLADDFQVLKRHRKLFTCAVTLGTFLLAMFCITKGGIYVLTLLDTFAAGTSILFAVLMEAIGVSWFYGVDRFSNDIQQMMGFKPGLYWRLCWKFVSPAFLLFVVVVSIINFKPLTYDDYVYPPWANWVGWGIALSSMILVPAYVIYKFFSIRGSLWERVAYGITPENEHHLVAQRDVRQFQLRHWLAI
# T1 sequence (Q01959 whole entry): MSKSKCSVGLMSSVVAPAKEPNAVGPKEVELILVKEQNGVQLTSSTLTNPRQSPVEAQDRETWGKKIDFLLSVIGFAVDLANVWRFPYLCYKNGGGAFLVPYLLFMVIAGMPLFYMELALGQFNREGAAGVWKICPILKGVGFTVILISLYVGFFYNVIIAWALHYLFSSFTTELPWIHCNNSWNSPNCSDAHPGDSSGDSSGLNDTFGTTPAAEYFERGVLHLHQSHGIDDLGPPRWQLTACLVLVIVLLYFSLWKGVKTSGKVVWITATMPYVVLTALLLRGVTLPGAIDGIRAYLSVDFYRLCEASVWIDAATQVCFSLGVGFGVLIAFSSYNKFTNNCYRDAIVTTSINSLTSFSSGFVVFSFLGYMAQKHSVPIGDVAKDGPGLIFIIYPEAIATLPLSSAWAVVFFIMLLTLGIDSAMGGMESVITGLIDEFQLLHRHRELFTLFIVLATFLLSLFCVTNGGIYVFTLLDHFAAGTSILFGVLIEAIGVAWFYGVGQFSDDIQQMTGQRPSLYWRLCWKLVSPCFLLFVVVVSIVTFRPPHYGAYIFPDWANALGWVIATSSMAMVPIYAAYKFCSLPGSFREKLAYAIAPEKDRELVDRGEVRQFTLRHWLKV
structure (smiles),measurement,setting,value
"Fc1cc(F)c(OCc2ccccc2C2CCNCC2)c(F)c1 [TD-9855, 4-[2-(2,4,6-trifluorophenoxymethyl)phenyl]piperidine]",Neurotransmitter Uptake Inhibition: pIC50 NET,rat native NET [1],"8.9 (8.6, 9.1)"
same,functional selectivity for NET over SERT,rat native NET [2],10 fold
same,Ki,human recombinant DAT,200 nM
same,average SERT occupancy,"SERT; 20mg single oral dose, Day 1, mean ± SD, n = 3, at plasma level 6.35ng/mL",25 (±8) %
same,Apparent SERT Occupancy Day 1,"SERT; 20 mg single oral dose, individual subjects, rApp ± SE, listed as TH-9855",15.5±2.6% and 29.1±2.2% and 30.5±3.1%
same,levels of SERT occupancy across subjects,"SERT; single dose of 20mg, n = 3",15–30%

# Reference: article PMC4368888, “Preclinical to Clinical Translation of CNS Transporter Occupancy of TD-9855, a Novel Norepinephrine and Serotonin Reuptake Inhibitor” (International Journal of Neuropsychopharmacology, 2015)
